Bounds are passed on as bounds.

The subject of the first test is KMS11 (human myeloma cell line). As to the kind of experiment: Cell Proliferation Assay (CellTiter-Glo, 3 days). In kind it is cell-based. The conditions noted are these: KMS-11, 72 h, KMS11-luc cells. The protocol:
KMS11 (human myeloma cell line), were cultured in IMDM supplemented with 10% FBS, sodium pyruvate and antibiotics. Cells were plated in the same medium at a density of 2000 cells per well into 96 well tissue culture plates, with outside wells vacant, on the day of assay.
Test compounds supplied in DMSO were diluted into DMSO at 500 times the desired final concentrations before dilution into culture media to 2 times final concentrations. Equal volumes of 2× compounds were added to the cells in 96 well plates and incubated at 37° C. for 3 days.
After 3 days plates were equilibrated to room temperature and equal volume of CellTiter-Glow Reagent (Promega) was added to the culture wells. The plates were agitated briefly and luminescent signal was measured with luminometer.
Using the procedures of Cell Proliferation Assay, the EC50 concentrations of compounds of the examples were determined in KMS11 cells as shown in Table 4.
Background: ATP-based viability assays read luminescence as a measure of living cells.
What is called EC50 is the concentration that produces a half-maximal response. Read a low EC50 as higher potency in that assay. Turning to `C[C@@H]1C[C@H](N)C[C@H](c2ccncc2NC(=O)c2ccc(F)c(-c3c(F)cc(CN4CCCC4=O)cc3F)n2)C1` [Example 144, N-(4-((1R,3S,5S)-3-amino-5-methylcyclohexyl)pyridin-3-yl)-6-(2,6-difluoro-4-((2-oxopyrrolidin-1-yl)methyl)phenyl)-5-fluoropicolinamide], it took 55 nM to reach a half-maximal effect (EC50).
Same read-out and setting: the figure for `C[C@H]1CN(c2ccncc2NC(=O)c2ccc(F)c(-c3c(F)ccc(OCCO)c3F)n2)C[C@@H](N)[C@@H]1O` [Example 31, N-(4-((3R,4R,5S)-3-amino-4-hydroxy-5-methylpiperidin-1-yl)pyridin-3-yl)-6-(2,6-difluoro-3-(2-hydroxyethoxy)phenyl)-5-fluoropicolinamide] is 12 nM; for `C[C@H]1C[C@@H](c2ccncc2NC(=O)c2ccc(F)c(-c3c(F)cc(C(F)F)cc3F)n2)C[C@@H](N)[C@@H]1O` [Example 58, N-(4-((1R,3R,4R,5S)-3-amino-4-hydroxy-5-methylcyclohexyl)pyridin-3-yl)-6-(4-(difluoromethyl)-2,6-difluorophenyl)-5-fluoropicolinamide] it is 42 nM.
For `C[C@H]1C[C@@H](c2ccncc2NC(=O)c2ccc(F)c(-c3c(F)cc(C(C)(C)C(=O)O)cc3F)n2)C[C@@H](N)[C@@H]1O` [Example 182, 2-(4-(6-(4-((1R,3R,4R,5S)-3-amino-4-hydroxy-5-methylcyclohexyl)pyridin-3-ylcarbamoyl)-3-fluoropyridin-2-yl)-3,5-difluorophenyl)-2-methylpropanoic acid], the EC50 is greater than 10000 nM.
Still for that read-out and setting: the figure for `CCc1cc(F)c(-c2nc(C(=O)Nc3cnccc3[C@@H]3C[C@H](C)C[C@H](N)C3)ccc2F)c(F)c1` [Example 230, N-(4-((1R,3S,5S)-3-amino-5-methylcyclohexyl)pyridin-3-yl)-6-(4-ethyl-2,6-difluorophenyl)-5-fluoropicolinamide] is 62 nM.
On the same count and under the same terms, with `CC(C)(C#N)c1cc(F)c(-c2nc(C(=O)Nc3cnccc3[C@@H]3CCC[C@H](N)C3)ccc2F)c(F)c1` [Example 167, N-(4-((1R,3S)-3-aminocyclohexyl)pyridin-3-yl)-6-(4-(2-cyanopropan-2-yl)-2,6-difluorophenyl)-5-fluoropicolinamide] the figure was 409 nM; with `CC(C)c1cc(F)c(-c2nc(C(=O)Nc3cnccc3[C@H]3C[C@@H](N)[C@H](O)[C@@H](C)C3)ccc2F)c(F)c1` [Example 199, N-(4-((1R,3R,4R,5S)-3-amino-4-hydroxy-5-methylcyclohexyl)pyridin-3-yl)-6-(2,6-difluoro-4-isopropylphenyl)-5-fluoropicolinamide], 204 nM.
Still for that read-out and setting: with `C[C@@H]1C[C@H](N)C[C@H](c2ccncc2NC(=O)c2ccc(F)c(-c3c(F)cc([C@@H](C)O)cc3F)n2)C1` [Example 74, N-(4-((1R,3S,5S)-3-amino-5-methylcyclohexyl)pyridin-3-yl)-6-(2,6-difluoro-4-((R)-1-hydroxyethyl)phenyl)-5-fluoropicolinamide] the figure was 15 nM.
With `C[C@@H]1C[C@H](N)C[C@H](c2ccncc2NC(=O)c2ccc(F)c(-c3c(F)cc(C(F)F)cc3F)n2)C1` [Example 57, N-(4-((1R,3S,5S)-3-amino-5-methylcyclohexyl)pyridin-3-yl)-6-(4-(difluoromethyl)-2,6-difluorophenyl)-5-fluoropicolinamide], the EC50 was determined as 42 nM.
Same read-out and setting: with `C[C@H]1C[C@@H](c2ccncc2NC(=O)c2ccc(F)c(-c3c(F)cc(C4(F)CCOCC4)cc3F)n2)C[C@@H](N)[C@H]1O` [Example 129, N-(4-((1R,3R,4S,5S)-3-amino-4-hydroxy-5-methylcyclohexyl)pyridin-3-yl)-6-(2,6-difluoro-4-(4-fluorotetrahydro-2H-pyran-4-yl)phenyl)-5-fluoropicolinamide] the figure was 78 nM; with `N[C@H]1CCC[C@@H](c2ccncc2NC(=O)c2ccc(F)c(-c3c(F)cc(OC4CCOCC4)cc3F)n2)C1` [Example 150, N-(4-((1R,3S)-3-aminocyclohexyl)pyridin-3-yl)-6-(2,6-difluoro-4-(tetrahydro-2H-pyran-4-yloxy)phenyl)-5-fluoropicolinamide], 324 nM; with `C[C@@H]1C[C@H](N)C[C@H](c2ccncc2NC(=O)c2ccc(F)c(-c3c(F)cc(C4(O)CCOCC4)cc3F)n2)C1` [Example 121, N-(4-((1R,3S,5S)-3-amino-5-methylcyclohexyl)pyridin-3-yl)-6-(2,6-difluoro-4-(4-hydroxytetrahydro-2H-pyran-4-yl)phenyl)-5-fluoropicolinamide], 27 nM.
Still for that read-out and setting: the figure for `N[C@H]1CCC[C@@H](c2ccncc2NC(=O)c2ccc(F)c(-c3c(F)cc(C4(F)CCOCC4)cc3F)n2)C1` [Example 153, N-(4-((1R,3S)-3-aminocyclohexyl)pyridin-3-yl)-6-(2,6-difluoro-4-(4-fluorotetrahydro-2H-pyran-4-yl)phenyl)-5-fluoropicolinamide] is 366 nM.
The same measure, in the same setting: the figure for `C[C@H]1CN(c2ccncc2NC(=O)c2ccc(F)c(-c3c(F)cc(F)cc3F)n2)C[C@@H](N)[C@@H]1O` [Example 218, N-(4-((3R,4R,5S)-3-amino-4-hydroxy-5-methylpiperidin-1-yl)pyridin-3-yl)-5-fluoro-6-(2,4,6-trifluorophenyl)picolinamide] is 23 nM; for `C[C@H]1C[C@@H](c2ccncc2NC(=O)c2ccc(F)c(-c3c(F)cc(C4(O)CC4)cc3F)n2)C[C@@H](N)[C@@H]1O` [Example 158, N-(4-((1R,3R,4R,5S)-3-amino-4-hydroxy-5-methylcyclohexyl)pyridin-3-yl)-6-(2,6-difluoro-4-(1-hydroxycyclopropyl)phenyl)-5-fluoropicolinamide] it is 64 nM; for `COc1cc(F)c(-c2nc(C(=O)Nc3cnccc3[C@H]3C[C@@H](N)[C@H](O)[C@@H](C)C3)ccc2F)c(F)c1` [Example 5, N-(4-((1R,3R,4R,5S)-3-amino-4-hydroxy-5-methylcyclohexyl)pyridin-3-yl)-6-(2,6-difluoro-4-methoxyphenyl)-5-fluoropicolinamide] it is 62 nM.
Take `Cc1cc(F)c(-c2nc(C(=O)Nc3cnccc3[C@@H]3C[C@H](C)C[C@H](N)C3)ccc2F)c(F)c1` [Example 8, N-(4-((1R,3S,5S)-3-amino-5-methylcyclohexyl)pyridin-3-yl)-6-(2,6-difluoro-4-methylphenyl)-5-fluoropicolinamide]: the concentration for a half-maximal effect (EC50) turned out to be 46 nM.
On the same count and under the same terms, with `C[C@H]1C[C@@H](c2ccncc2NC(=O)c2ccc(F)c(-c3c(F)cc(S(C)(=O)=O)cc3F)n2)C[C@@H](N)[C@@H]1O` [Example 14, N-(4-((1R,3R,4R,5S)-3-amino-4-hydroxy-5-methylcyclohexyl)pyridin-3-yl)-6-(2,6-difluoro-4-(methylsulfonyl)phenyl)-5-fluoropicolinamide] the figure was 1440 nM.
Same read-out and setting: with `C[C@@H]1C[C@H](N)C[C@H](c2ccncc2NC(=O)c2ccc(F)c(-c3c(F)cc(S(C)(=O)=O)cc3F)n2)C1` [Example 1, N-(4-((1R,3S,5S)-3-amino-5-methylcyclohexyl)pyridin-3-yl)-6-(2,6-difluoro-4-(methylsulfonyl)phenyl)-5-fluoropicolinamide] the figure was 383 nM; with `C[C@@H]1C[C@H](N)C[C@H](c2ccncc2NC(=O)c2ccc(F)c(-c3c(F)cc([C@H](C)O)cc3F)n2)C1` [Example 73, N-(4-((1R,3S,5S)-3-amino-5-methylcyclohexyl)pyridin-3-yl)-6-(2,6-difluoro-4-((S)-1-hydroxyethyl)phenyl)-5-fluoropicolinamide], 21 nM; with `C[C@@H]1C[C@H](N)C[C@H](c2ccncc2NC(=O)c2ccc(F)c(-c3c(F)cc(C(C)(C)O)cc3F)n2)C1` [Example 236, N-(4-((1R,3S,5S)-3-amino-5-methylcyclohexyl)pyridin-3-yl)-6-(2,6-difluoro-4-(2-hydroxypropan-2-yl)phenyl)-5-fluoropicolinamide], 13 nM.
The compound `C[C@H]1CN(c2ccncc2NC(=O)c2ccc(F)c(-c3c(F)cc(Cl)cc3F)n2)C[C@@H](N)[C@@H]1O` [Example 217, N-(4-((3R,4R,5S)-3-amino-4-hydroxy-5-methylpiperidin-1-yl)pyridin-3-yl)-6-(4-chloro-2,6-difluorophenyl)-5-fluoropicolinamide] came in with a concentration giving a half-maximal response (EC50) of 62 nM. This EC50 is about 4.8-fold higher than that of the compound before.
Still for that read-out and setting: with `C[C@H]1C[C@@H](c2ccncc2NC(=O)c2ccc(F)c(-c3c(F)cc(C4(O)CCOCC4)cc3F)n2)C[C@@H](N)[C@@H]1O` [Example 122, N-(4-((1R,3R,4R,5S)-3-amino-4-hydroxy-5-methylcyclohexyl)pyridin-3-yl)-6-(2,6-difluoro-4-(4-hydroxytetrahydro-2H-pyran-4-yl)phenyl)-5-fluoropicolinamide] the figure was 83 nM; with `COc1cc(F)c(-c2nc(C(=O)Nc3cnccc3[C@@H]3C[C@H](C)C[C@H](N)C3)ccc2F)c(F)c1` [Example 11, N-(4-((1R,3S,5S)-3-amino-5-methylcyclohexyl)pyridin-3-yl)-6-(2,6-difluoro-4-methoxyphenyl)-5-fluoropicolinamide], 71 nM.
For the compound `CCOCc1cc(F)c(-c2nc(C(=O)Nc3cnccc3[C@@H]3CCC[C@H](N)C3)ccc2F)c(F)c1` [Example 152, N-(4-((1R,3S)-3-aminocyclohexyl)pyridin-3-yl)-6-(4-(ethoxymethyl)-2,6-difluorophenyl)-5-fluoropicolinamide], the EC50 was 211 nM.

The target in a further test is Pim 2 (Homo sapiens, UniProt Q9P1W9). As to the kind of experiment: Pim 2 AlphaScreen assay (high ATP).
Sequence of Pim 2 (Q9P1W9 whole entry): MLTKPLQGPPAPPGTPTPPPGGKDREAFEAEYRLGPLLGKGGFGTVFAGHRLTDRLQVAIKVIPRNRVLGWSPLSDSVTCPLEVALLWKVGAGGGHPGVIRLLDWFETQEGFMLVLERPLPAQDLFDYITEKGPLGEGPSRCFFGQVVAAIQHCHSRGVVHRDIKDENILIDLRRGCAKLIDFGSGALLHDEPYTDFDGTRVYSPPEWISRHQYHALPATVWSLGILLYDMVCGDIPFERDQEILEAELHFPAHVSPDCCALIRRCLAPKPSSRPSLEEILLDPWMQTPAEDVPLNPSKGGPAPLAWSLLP
Conditions: not given
A general note: In Alpha technology, singlet oxygen from a donor bead excites a nearby acceptor bead.
As usually defined, the IC50 is the concentration that gives 50% inhibition. High values mean weaker potency in that assay, low ones greater potency in that assay. Compound `C[C@@H]1C[C@H](N)C[C@H](c2ccncc2NC(=O)c2ccc(F)c(-c3c(F)cc(CN4CCCC4=O)cc3F)n2)C1` [Example 144, N-(4-((1R,3S,5S)-3-amino-5-methylcyclohexyl)pyridin-3-yl)-6-(2,6-difluoro-4-((2-oxopyrrolidin-1-yl)methyl)phenyl)-5-fluoropicolinamide] displayed an IC50 of 2.61 nM.
Still for that read-out and setting: with `C[C@H]1CN(c2ccncc2NC(=O)c2ccc(F)c(-c3c(F)ccc(OCCO)c3F)n2)C[C@@H](N)[C@@H]1O` [Example 31, N-(4-((3R,4R,5S)-3-amino-4-hydroxy-5-methylpiperidin-1-yl)pyridin-3-yl)-6-(2,6-difluoro-3-(2-hydroxyethoxy)phenyl)-5-fluoropicolinamide] the figure was 1.36 nM.

(Values after patent publication US20120225062A1 (priority 2011, published 2012).)
